From ChEMBL document CHEMBL1770059, “Identification of chemicals to inhibit the kinase activity of leucine-rich repeat kinase 2 (LRRK2), a Parkinson's disease-associated protein” (Bioorg Med Chem Lett, 2011)
Calls of active or inactive are those of the source. The calls are words filed in the database; no cut-off is given here.

Key:
[1] = biological target: RAF proto-oncogene serine/threonine-protein kinase (Homo sapiens) (UniProt P04049); test: Inhibition of c-Raf assessed as residual activity of enzyme at 10 uM
RAF proto-oncogene serine/threonine-protein kinase (Homo sapiens), sequence (P04049 whole entry): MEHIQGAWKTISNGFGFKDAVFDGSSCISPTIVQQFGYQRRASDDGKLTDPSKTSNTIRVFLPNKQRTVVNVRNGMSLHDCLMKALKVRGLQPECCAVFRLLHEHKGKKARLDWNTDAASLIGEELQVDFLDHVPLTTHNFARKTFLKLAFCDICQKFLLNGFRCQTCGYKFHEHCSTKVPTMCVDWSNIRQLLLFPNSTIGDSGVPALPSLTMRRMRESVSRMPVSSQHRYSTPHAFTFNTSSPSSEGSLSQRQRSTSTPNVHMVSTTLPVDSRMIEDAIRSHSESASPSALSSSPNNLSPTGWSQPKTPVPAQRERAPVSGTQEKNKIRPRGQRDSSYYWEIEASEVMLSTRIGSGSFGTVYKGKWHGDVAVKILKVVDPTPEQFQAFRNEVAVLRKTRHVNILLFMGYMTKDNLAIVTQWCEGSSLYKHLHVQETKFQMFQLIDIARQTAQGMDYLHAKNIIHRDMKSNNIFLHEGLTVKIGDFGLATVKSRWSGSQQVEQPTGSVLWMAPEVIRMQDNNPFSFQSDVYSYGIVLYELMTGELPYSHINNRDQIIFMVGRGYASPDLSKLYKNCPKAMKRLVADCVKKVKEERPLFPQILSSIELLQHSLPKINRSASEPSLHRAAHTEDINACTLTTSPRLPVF

[2] = biological target: RAF proto-oncogene serine/threonine-protein kinase (Homo sapiens) (UniProt P04049); test: Inhibition of c-Raf assessed as residual activity of enzyme at 25 uM
[3] = biological target: T1, Cyclin-dependent kinase 5/CDK5 activator 1 (Homo sapiens) (UniProt Q00535+Q15078); test: Inhibition of CDK5/p25 assessed as residual activity of enzyme at 10 uM; type: protein-complex assay
T1 sequence (Q00535 whole entry): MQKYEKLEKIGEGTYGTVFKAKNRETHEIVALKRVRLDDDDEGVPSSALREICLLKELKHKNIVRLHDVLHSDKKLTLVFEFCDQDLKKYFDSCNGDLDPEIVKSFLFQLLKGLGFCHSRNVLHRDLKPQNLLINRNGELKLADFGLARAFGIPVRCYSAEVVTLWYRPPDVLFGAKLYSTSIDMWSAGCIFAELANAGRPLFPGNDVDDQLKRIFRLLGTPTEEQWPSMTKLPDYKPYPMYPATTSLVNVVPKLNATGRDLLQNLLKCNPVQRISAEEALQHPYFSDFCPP
T1 sequence (Q15078 99-307 partner limits assumed): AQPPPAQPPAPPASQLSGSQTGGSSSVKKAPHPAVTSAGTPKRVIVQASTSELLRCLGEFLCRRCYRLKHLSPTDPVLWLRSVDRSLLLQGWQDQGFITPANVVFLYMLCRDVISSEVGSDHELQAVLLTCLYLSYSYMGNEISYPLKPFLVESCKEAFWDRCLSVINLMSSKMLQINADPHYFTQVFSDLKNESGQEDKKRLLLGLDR

[4] = biological target: T1, Cyclin-dependent kinase 5/CDK5 activator 1 (Homo sapiens); test: Inhibition of CDK5/p25 assessed as residual activity of enzyme at 25 uM; type: protein-complex assay
[5] = biological target: Casein kinase I isoform alpha (Homo sapiens) (UniProt P48729); test: Inhibition of CK1 assessed as residual activity of enzyme at 25 uM
Casein kinase I isoform alpha (Homo sapiens), sequence (P48729 2-337 limits assumed): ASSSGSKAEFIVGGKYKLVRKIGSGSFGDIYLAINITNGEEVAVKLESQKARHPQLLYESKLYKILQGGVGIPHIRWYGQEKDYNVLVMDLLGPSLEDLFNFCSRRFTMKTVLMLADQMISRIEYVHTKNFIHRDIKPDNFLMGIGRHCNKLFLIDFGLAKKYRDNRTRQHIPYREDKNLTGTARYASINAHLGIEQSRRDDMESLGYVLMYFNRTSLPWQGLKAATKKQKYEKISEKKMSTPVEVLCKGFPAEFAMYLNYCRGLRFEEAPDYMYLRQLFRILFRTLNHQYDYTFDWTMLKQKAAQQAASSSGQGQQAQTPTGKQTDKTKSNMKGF

[6] = biological target: Glycogen synthase kinase-3 beta (Homo sapiens) (UniProt P49841); test: Inhibition of GSK3-beta assessed as residual activity of enzyme at 10 uM
Glycogen synthase kinase-3 beta (Homo sapiens), sequence (P49841 whole entry, looked up): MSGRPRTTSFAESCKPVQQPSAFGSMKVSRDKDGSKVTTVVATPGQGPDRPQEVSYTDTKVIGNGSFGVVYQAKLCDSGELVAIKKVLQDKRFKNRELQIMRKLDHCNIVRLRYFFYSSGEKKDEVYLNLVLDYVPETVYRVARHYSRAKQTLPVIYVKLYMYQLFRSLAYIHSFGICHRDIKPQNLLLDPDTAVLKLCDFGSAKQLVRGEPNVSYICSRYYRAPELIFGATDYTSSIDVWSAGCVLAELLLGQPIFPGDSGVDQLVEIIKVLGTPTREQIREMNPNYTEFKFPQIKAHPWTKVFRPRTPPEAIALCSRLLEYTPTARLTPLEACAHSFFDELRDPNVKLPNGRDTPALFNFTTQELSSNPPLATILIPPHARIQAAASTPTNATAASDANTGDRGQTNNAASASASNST

[7] = biological target: Glycogen synthase kinase-3 beta (Homo sapiens) (UniProt P49841); test: Inhibition of GSK3-beta assessed as residual activity of enzyme at 25 uM
[8] = biological target: Ribosomal protein S6 kinase beta-1 (Homo sapiens) (UniProt P23443); test: Inhibition of p70S6K assessed as residual activity of enzyme at 25 uM
Ribosomal protein S6 kinase beta-1 (Homo sapiens), sequence (P23443 whole entry, looked up): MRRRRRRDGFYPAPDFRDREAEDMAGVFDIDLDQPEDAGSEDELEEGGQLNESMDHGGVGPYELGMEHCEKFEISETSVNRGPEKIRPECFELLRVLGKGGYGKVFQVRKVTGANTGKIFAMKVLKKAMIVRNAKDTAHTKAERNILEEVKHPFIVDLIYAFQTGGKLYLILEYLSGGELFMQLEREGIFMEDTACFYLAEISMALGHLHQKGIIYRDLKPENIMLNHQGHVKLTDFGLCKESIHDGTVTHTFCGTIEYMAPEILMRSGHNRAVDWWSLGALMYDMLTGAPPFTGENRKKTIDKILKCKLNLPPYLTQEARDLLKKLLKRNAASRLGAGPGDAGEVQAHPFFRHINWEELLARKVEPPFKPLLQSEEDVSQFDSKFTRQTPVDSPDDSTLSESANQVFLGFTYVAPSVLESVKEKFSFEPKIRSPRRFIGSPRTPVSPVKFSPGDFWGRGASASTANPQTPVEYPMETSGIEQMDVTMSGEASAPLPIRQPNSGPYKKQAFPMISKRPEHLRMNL

[9] = biological target: T2, Mitogen-activated protein kinase kinase kinase 7 (Homo sapiens) (UniProt O43318); test: Inhibition of TAK1 assessed as residual activity of enzyme at 25 uM
T2 sequence (whole entry): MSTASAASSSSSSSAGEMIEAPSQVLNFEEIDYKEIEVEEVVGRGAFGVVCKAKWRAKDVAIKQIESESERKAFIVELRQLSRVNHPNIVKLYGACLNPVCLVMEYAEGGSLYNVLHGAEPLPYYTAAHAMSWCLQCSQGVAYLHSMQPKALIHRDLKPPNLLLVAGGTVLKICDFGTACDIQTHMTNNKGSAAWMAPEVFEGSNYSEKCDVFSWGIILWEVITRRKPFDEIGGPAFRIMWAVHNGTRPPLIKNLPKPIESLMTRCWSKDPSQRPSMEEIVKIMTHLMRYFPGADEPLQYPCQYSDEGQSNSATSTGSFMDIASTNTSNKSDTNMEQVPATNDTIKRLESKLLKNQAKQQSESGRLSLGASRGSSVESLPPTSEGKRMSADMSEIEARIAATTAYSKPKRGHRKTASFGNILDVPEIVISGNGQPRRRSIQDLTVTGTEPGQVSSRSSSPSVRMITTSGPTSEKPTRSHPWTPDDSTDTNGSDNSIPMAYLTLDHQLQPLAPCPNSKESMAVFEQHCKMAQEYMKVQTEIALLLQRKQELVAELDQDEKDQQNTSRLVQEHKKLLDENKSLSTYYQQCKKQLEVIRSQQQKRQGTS

[10] = biological target: T3, Serine/threonine-protein kinase TAO1 (Homo sapiens) (UniProt Q7L7X3); test: Inhibition of TAO1 assessed as residual activity of enzyme at 10 uM
T3 sequence (whole entry): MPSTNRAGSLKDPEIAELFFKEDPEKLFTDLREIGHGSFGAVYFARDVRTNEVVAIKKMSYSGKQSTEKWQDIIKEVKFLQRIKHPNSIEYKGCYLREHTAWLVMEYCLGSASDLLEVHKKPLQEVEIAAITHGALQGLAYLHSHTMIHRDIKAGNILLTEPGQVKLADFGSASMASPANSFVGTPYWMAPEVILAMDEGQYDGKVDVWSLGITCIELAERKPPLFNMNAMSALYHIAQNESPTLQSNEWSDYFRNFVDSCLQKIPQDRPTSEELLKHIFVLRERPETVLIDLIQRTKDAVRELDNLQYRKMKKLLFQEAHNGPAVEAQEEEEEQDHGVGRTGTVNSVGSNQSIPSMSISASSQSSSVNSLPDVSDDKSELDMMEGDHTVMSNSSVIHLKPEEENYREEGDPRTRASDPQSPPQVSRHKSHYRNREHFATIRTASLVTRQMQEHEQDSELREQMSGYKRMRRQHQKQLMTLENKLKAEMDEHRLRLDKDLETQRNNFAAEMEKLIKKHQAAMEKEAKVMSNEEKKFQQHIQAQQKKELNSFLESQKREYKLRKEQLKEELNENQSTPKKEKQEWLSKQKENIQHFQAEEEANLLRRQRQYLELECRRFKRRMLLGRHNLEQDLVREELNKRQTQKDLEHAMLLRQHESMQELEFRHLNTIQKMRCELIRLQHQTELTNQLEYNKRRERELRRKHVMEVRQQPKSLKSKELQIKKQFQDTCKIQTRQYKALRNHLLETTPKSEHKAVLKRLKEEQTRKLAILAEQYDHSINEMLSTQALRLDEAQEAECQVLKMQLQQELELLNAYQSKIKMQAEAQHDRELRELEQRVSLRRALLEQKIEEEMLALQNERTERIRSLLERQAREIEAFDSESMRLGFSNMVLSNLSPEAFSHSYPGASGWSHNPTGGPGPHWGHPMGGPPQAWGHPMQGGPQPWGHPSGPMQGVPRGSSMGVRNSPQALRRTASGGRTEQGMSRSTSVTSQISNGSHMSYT

[11] = Neurotoxicity in rat primary cortical neurons assessed as cell survival at 10 uM after 24 hrs by MTT assay; type: toxicity, cell-based, Cerebral cortex neuron; conditions: read-out: Activity
[12] = Neurotoxicity in rat primary cortical neurons assessed as cell survival at 100 uM after 24 hrs by MTT assay; type: toxicity, cell-based; conditions: cerebral cortex neuron
[13] = tested on: Leucine-rich repeat serine/threonine-protein kinase 2 (Homo sapiens), Q5S007 [G2019S]; test: Inhibition of purified N-terminal GST-tagged LRRK2 G2019S mutant autophosphorylation activity using myelin basic protein as substrate at 25 uM
Leucine-rich repeat serine/threonine-protein kinase 2 (Homo sapiens), Q5S007 [G2019S], sequence (Q5S007 whole entry G2019S): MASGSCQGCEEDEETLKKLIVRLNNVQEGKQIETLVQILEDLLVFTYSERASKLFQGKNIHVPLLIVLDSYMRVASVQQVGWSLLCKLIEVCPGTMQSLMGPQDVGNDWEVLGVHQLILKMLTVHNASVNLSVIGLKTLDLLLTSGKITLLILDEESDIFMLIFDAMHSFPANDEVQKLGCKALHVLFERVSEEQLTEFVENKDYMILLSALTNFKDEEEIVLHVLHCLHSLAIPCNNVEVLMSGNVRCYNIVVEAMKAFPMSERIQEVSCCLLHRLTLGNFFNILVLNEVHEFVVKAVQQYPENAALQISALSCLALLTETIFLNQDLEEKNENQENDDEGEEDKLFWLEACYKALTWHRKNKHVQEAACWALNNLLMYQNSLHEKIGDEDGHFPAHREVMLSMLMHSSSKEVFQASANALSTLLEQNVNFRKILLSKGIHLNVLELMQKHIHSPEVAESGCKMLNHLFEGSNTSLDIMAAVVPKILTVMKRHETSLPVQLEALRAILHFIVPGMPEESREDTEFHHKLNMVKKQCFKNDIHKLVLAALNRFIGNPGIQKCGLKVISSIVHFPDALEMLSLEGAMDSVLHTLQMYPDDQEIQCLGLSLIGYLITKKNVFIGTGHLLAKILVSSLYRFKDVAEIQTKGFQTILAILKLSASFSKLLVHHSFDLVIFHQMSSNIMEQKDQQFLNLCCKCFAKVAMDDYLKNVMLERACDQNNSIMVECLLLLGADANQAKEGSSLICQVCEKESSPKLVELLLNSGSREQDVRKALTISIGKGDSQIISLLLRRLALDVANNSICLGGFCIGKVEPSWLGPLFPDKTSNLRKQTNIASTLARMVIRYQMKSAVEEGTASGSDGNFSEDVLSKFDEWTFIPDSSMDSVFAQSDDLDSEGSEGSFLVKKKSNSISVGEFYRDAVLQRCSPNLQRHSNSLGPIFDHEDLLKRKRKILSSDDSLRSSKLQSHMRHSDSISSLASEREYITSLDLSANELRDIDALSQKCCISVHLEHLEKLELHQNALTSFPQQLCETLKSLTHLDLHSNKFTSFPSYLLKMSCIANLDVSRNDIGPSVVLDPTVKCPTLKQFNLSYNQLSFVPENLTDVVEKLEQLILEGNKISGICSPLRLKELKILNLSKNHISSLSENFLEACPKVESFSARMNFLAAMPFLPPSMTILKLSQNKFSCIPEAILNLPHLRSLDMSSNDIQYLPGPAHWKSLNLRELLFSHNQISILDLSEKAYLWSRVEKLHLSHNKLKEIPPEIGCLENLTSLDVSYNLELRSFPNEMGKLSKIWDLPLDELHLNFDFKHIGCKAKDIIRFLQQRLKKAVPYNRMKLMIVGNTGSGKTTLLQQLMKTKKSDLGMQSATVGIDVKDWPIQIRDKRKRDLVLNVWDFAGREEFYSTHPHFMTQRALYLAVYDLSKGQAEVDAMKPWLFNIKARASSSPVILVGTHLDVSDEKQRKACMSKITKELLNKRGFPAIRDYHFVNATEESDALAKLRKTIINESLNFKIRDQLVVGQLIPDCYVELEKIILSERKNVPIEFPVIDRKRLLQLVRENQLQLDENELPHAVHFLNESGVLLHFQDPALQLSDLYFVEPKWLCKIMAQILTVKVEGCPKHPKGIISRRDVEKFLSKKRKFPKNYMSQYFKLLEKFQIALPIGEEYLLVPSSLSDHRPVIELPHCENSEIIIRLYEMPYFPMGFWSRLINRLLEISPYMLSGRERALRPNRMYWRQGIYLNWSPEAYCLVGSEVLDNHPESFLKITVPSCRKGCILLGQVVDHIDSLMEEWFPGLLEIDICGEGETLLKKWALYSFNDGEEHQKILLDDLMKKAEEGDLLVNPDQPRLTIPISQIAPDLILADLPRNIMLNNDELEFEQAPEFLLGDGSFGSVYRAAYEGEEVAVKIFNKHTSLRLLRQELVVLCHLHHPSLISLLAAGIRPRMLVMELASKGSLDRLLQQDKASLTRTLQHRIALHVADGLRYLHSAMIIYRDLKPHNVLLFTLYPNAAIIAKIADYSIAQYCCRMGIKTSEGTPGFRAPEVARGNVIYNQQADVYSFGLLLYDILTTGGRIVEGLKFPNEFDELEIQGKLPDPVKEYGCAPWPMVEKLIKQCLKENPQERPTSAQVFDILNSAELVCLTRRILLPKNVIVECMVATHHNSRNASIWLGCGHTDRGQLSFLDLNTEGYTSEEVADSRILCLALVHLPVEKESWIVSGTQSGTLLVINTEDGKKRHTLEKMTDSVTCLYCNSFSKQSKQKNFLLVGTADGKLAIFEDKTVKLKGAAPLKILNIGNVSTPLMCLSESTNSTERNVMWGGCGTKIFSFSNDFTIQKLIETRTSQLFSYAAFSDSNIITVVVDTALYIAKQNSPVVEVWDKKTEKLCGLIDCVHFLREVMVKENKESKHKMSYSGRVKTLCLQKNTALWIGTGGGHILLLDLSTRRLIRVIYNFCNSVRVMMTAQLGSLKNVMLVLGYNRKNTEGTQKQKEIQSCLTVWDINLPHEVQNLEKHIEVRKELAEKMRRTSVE

Activity [1]: 92%
Activity [2]: 86%
Activity [3]: 97%
Activity [4]: 81%
Activity [5]: 59%
Activity [6]: 99%
Activity [7]: 94%
Activity [8]: 50%
Activity [9]: 48%
Activity [10]: 88%
inhibition [13]: Active
Structure (SMILES): Cc1cc(N/N=C/c2ccncc2)nc2ccccc12
viability at 24 h, 10 µM [11]: 85%
Activity [12]: Toxic
